Measurements as given in PMC9827882, “Templated Generation of a Bcl‐xL Inhibitor by Isomer‐Free SPAAC Based on Azacyclonon‐5‐yne” (Chemistry (Weinheim an Der Bergstrasse, Germany), 2022).
Blank lines part the entries; values can stand above or below the compound they belong to.

Assays:
Bcl‐xL [1] = target: T1, Bcl‐xL (Homo sapiens, UniProt Q07817, DEL45-84); assay: Competitive fluorescence polarization (FP) binding assay: Bcl‐xL and fluorescein‐labeled Bak BH3‐derived peptide; conditions: for IC50: Bcl‐xL 37 nM, Bak BH3 peptide 4 nM, triplicate, read-out: IC50 against Bcl‐xL in FP assay
T1 construct: The protein Bcl‐xL (amino acids 1‐209, Δ45–84, kindly provided by Prof. Ho Sup Yoon); gift of Prof; Ho Sup Yoon, Nanyang Technological University, Singapore
T1 sequence (Q07817 with tags, fused parts or gaps DEL45-84): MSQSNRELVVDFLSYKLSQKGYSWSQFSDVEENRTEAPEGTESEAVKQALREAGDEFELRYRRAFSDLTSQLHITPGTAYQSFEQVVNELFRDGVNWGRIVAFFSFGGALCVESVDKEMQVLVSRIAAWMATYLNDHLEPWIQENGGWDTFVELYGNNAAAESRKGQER
Description: The abilities of triazoles 11 a/c to interfere with binding between Bcl‐xL and a fluorescein‐labeled peptide derived from the pro‐apoptotic Bcl‐2 protein Bak was analyzed in a competitive binding assay based on fluorescence polarization (FP).[9, 20]
Fluorescence polarization assays: Assays were performed essentially as described previously.[20, 30] The protein Bcl‐xL (amino acids 1‐209, Δ45–84, kindly provided by Prof. Ho Sup Yoon, Nanyang Technological University, Singapore)[31] was incubated with the test compounds for 1 h at room temperature at a protein concentration of 37 nM. Subsequently, fluorophore‐labeled Bak BH3‐derived peptide (5‐carboxyfluorescein‐[…]‐NH2 was added (final peptide concentration: 4 nM), and the fluorescence polarization was measured after another 60 min in a plate reader (Tecan Infinite F500). All experiments were carried out in triplicate. Buffer composition: 10 mM Tris pH 8.0, 50 mM NaCl, 1 mM EDTA, 0.1 % Nonidet P‐40 substitute, 1 mM DTT, and 2 % DMSO.

Bcl‐xL [2] = target: T1, Bcl‐xL; assay: Kinetic analysis by HPLC of the reaction between 12 d and 13 to generate 11 d in aqueous buffer, templated by Bcl‐xL; conditions: for second‐order rate constant k of formation of 11 d from 12 d and 13: 12 d and 13 both 50 μM; for second‐order rate constant k of formation of 11 d from 12 d and 13 / rate acceleration over the reaction of 1 and benzyl azide in acetonitrile at room temperature: aqueous buffer, 37 °C
Description: While the reactivities of cycloalkynes are typically characterized by their second‐order rate constants in the reaction with benzylazide in CD3CN, or sometimes CD3OD, the relevant reactivity of a cycloalkyne for use in iSPAAC is the reactivity between the functionalized cycloalkyne and the functionalized azide in aqueous media at the physiological temperature of 37 °C. We therefore analyzed the kinetics of the reaction between the functionalized cycloalkyne 12 d and the azide 13 in aqueous buffer by reversed‐phase (RP)‐HPLC. Incubation of 12 d and 13 (both at 50 μM) at 37 °C generated the triazole 11 d with a second‐order rate constant of 2.1±0.2×10^−3 M^−1 s^−1 (Figures 7 and S6). This represents a 450‐fold rate acceleration over the reaction of 1 and benzyl azide in acetonitrile at room temperature (k=4.7±0.1×10^−6 M^−1 s^−1). In the presence of an additional, equimolar amount of Bcl‐xL, this rate was further increased by a factor of 6 (k=1.33±0.06×10^−2 M^−1 s^−1), representing a 2800‐fold higher rate constant than observed in the standard reaction between 1 and benzyl azide in acetonitrile at room temperature. […] Of particular relevance in this context are the templated synthesis of sulfonamide‐based Bcl‐xL inhibitors using sulfonyl azides and thioacids,[23] and protein‐templated formation of 1,2,3‐triazoles from azides and terminal alkynes in the absence of Cu^I.[24]
Kinetic analysis by HPLC: 12 d (50 μM) and 13 (50 μM) were incubated at 37 °C in the absence of Bcl‐xL, in the presence of Bcl‐xL (50 μM), and in the presence of both Bcl‐xL (50 μM) and ABT‐737 (50 μM). At the given time points, aliquots of 60 μL were diluted with 60 μL of 0.1 % TFA in 4.5 % acetonitrile/H2O and analyzed by RP‐HPLC (100 μL injection volume). The formation of 11 d was quantified by peak area using a standard curve. 1/(50×10^−6−[11 d]) [M^−1] was plotted against time. Linear regression gave the second‐order rate constant k as the slope. Experiments were carried out in triplicate. Buffer composition: 10 mM Tris pH 8.0, 50 mM NaCl, 1 mM EDTA, 0.1 % Nonidet P‐40 substitute, and 4 % DMSO.

[3] = set-up: method as in PMID 18451170; conditions: cited from earlier work
[4] = set-up: method as in PMID 18451170; conditions: cited from earlier work; remark: listed apart in the source

Compound: O=C(c1ccccc1-c1ccc(Cl)cc1)N1CCCC#CCCC1 [12 a]
- activity against Bcl‐xL in FP assay (in words) (Bcl‐xL [1]; 100 μM, FP assay): inactive
- activity against Bcl‐xL in FP assay (in words) (Bcl‐xL [1]; 100 μM, FP assay, listed as 12a): no inhibition

Compound: O=C(OCc1ccccc1-c1ccc(Cl)cc1)N1CCCC#CCCC1 [12 c]
- activity against Bcl‐xL in FP assay (in words) (Bcl‐xL [1]; 100 μM, FP assay): inactive
- activity against Bcl‐xL in FP assay (in words) (Bcl‐xL [1]; 100 μM, FP assay, listed as 12c): no inhibition

Compound: O=C(OCC1=C(c2ccc(Cl)cc2)CCNC1)N1CCCC#CCCC1 [12 d]
- activity against Bcl‐xL in FP assay (in words) (Bcl‐xL [1]; 100 μM, FP assay): inactive
- activity against Bcl‐xL in FP assay (in words) (Bcl‐xL [1]; 100 μM, FP assay, listed as 12d): no inhibition

Compound: CN(C)CC[C@H](CSc1ccccc1)Nc1ccc(S(=O)(=O)NC(=O)c2ccc(N3CCN(Cc4ccccc4-c4ccc(Cl)cc4)CC3)cc2)cc1[N+](=O)[O-] [ABT‐737]
- oral bioavailability [3]: poor
- cell permeability in tissue culture [4]: cell‐permeable

Compound: CN(C)CC[C@H](CSc1ccccc1)Nc1ccc(S(=O)(=O)NC(=O)CN=[N+]=[N-])cc1[N+](=O)[O-] [compound 13]
- inhibition at 100 µM (Bcl‐xL [1]; 100 μM, FP assay): 48 ± 3%

Next, values leading:

- IC50 (Bcl‐xL [1]): 18 ± 0.7 µM
Compound: CN(C)CC[C@H](CSc1ccccc1)Nc1ccc(S(=O)(=O)NC(=O)Cn2nnc3c2CCCN(C(=O)c2ccccc2-c2ccc(Cl)cc2)CCC3)cc1[N+](=O)[O-] [11 a]

- IC50 (Bcl‐xL [1]): 11.4 ± 0.9 µM
Compound: CN(C)CC[C@H](CSc1ccccc1)Nc1ccc(S(=O)(=O)NC(=O)Cn2nnc3c2CCCN(C(=O)OCc2ccccc2-c2ccc(Cl)cc2)CCC3)cc1[N+](=O)[O-] [11 c]

- second‐order rate constant k of formation of 11 d from 12 d and 13 (Bcl‐xL [2]; equimolar Bcl‐xL (50 μM)): 1.33±0.06×10^−2 M^−1 s^−1
- rate acceleration over the reaction of 1 and benzyl azide in acetonitrile at room temperature (Bcl‐xL [2]; no Bcl‐xL): 450 fold
- second‐order rate constant k of formation of 11 d from 12 d and 13 (Bcl‐xL [2]; no Bcl‐xL, RP‐HPLC): 2.1±0.2×10^−3 M^−1 s^−1
- rate increase by Bcl‐xL (template effect) (Bcl‐xL [2]; with equimolar Bcl‐xL vs without Bcl‐xL): 6 factor
- rate acceleration over the reaction of 1 and benzyl azide in acetonitrile at room temperature (Bcl‐xL [2]; with equimolar Bcl‐xL): 2800 fold
- IC50 (Bcl‐xL [1]): 2.42 ± 0.02 µM
- almost 5-fold higher inhibitory potency of 11 d than 11 c (Bcl‐xL [1]; ratio of IC50 values, 11 d vs 11 c): ~5 fold
Compound: CN(C)CC[C@H](CSc1ccccc1)Nc1ccc(S(=O)(=O)NC(=O)Cn2nnc3c2CCCN(C(=O)OCC2=C(c4ccc(Cl)cc4)CCNC2)CCC3)cc1[N+](=O)[O-] [11 d]
